Measured values taken from PubChem BioAssay AID2060486 (Molecular Pharmacology Branch, DTP, NCI, 2025).
“And” between values parts separate entries of the source, which are not always exact repeats. Equal entries are not always repeated.

Test system: IGROV1 complex spheroids (HUVEC, MSC), viability % test/control
Test: Anticancer human tumor IGROV1 cell line growth inhibition [GQUAD];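 further: spheroids exposed to compounds for 7 days before readout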
Details: for viability, T/C: stronger effect = lower value
Excerpt: DNA G-quadruplex Stabilizer Agents in Combinations in Complex Spheroids
A high-throughput screen of multi-cell type tumor spheroids was designed to identify active combinations of DNA G-quadruplex stabilizer agents and targeted small molecules. Complex spheroids include a stromal component modeled by human endothelial cells (HUVEC) and fibroblasts modeled by human mesenchymal stem cells (MSCs). The concentration ranges selected for each drug and investigational agent were based upon clinically achievable concentrations if the clinical Cmax of the agent was known.
Compounds. The drugs and investigational agents: pidnarulex (CX-5461; NSC782164), APTO-253 (NSC789042), BRACO-19 (NSC847499), peposertib (NSC802822), ceralasertib (NSC780249), elimusertib (NSC800525), camonsertib (NSC841442), AZD-1390 (NSC803789), olaparib (NSC753686), talazoparib (NSC767125), ART-558 (NSC835418), sotorasib (NSC818433), MRTX-1133 (NSC836407), SN-38 (NSC673596), topotecan (NSC609699), etoposide (NSC141540), doxorubicin (NSC123127), gemcitabine (NSC613327), 5-fluorouracil (NSC19893), paclitaxel (NSC125973), vemurafenib (NSC761431), panobinostat (NSC761190), R-306465 (JNJ-16241199; NSC773264), adavosertib (NSC754352), TP-3654 (NSC805149), carboplatin (NSC241240), KSQ-4279 (NSC840948), and staurosporine (NSC755774) were obtained from the National Cancer Institute (NCI) Developmental Therapeutics Program Chemical Repository (34). The FDA-approved anticancer drug set is available from the NCI Developmental Therapeutics Program. […] The stock solutions were prepared in dimethyl sulfoxide (DMSO, Sigma-Aldrich, St. Louis, MO, cat. D2650) at 800-fold the tested concentration and stored at -70 degrees C prior to their use. All drugs and investigational agents were tested over a range starting from a high concentration at or near the clinical Cmax and decreasing in half-log increments. If the clinical Cmax for an agent had not been determined, the highest concentration tested was 10 microM.
2.3 Cell Culture. All cells were maintained in an incubator at 37 degrees C and 5% CO2 with 95% humidity. The PDC lines were cultured according to standard operating procedures established by the NCI PDMR. All PDCs were thawed and cultured in Matrigel-coated flasks prepared with a working solution of 1X Ham's F-12 nutrient mix, without supplementation (Invitrogen, cat. 11765054), 100 U/mL penicillin-streptomycin (Invitrogen, cat. 15140122), and 2.5% Matrigel (Corning Inc., cat. 354248) for the first three passages. The 857933-349-R-J2-PDC line was cultured in 6C/Colon 1B media, which includes advanced DMEM/F-12 (Thermo Fisher Scientific, cat. 12634028), 10 mM HEPES (Thermo Fisher Scientific, cat. 15630080), 1X GlutaMAX supplement (Thermo Fisher Scientific, cat. 35050061), 0.1 mg/mL primocin (InvivoGen, cat. ant-pm-2), 10% defined fetal bovine serum, heat inactivated (HyClone Laboratories Inc., cat. SH30070.03HI), 50% L-WRN conditioned media (ATCC, cat. CRL-3276), 1.25 mM N-Acetyl-L-cysteine (Sigma-Aldrich, cat. A9165), 10 mM nicotinamide (Sigma-Aldrich, cat. N0636), 1X B-27 supplement (Thermo Fisher Scientific, cat. 17504044), 1X N-2 supplement (Thermo Fisher Scientific, cat. 17502048), 10 microM Y-27632 dihydrochloride (Tocris Bioscience, cat. 1254), and 50 ng/mL human EGF recombinant protein (Thermo Fisher Scientific, cat. PHG0311). The 485176-168-R4-J1-PDC line was cultured in Panc media, which includes all 6C/Colon 1B media components plus 100 ng/mL human FGF-10 (Thermo Fisher Scientific, cat. 100-26), 500 nM SB-431542 (Selleckchem, cat. S1067), and gastrin (Tocris, cat. 3006).
[…]

Structure (SMILES): COc1cc(C2c3cc4c(cc3C(OC3OC5COC(C)OC5C(O)C3O)C3COC(=O)C23)OCO4)cc(OC)c1O (configuration not stated)
- viability, T/C (compound 0.0316 µM): 87.7% and 74.7% and 87.1%
- viability, T/C (compound 0.1 µM): 50.5% and 54.1% and 56.5%
- viability, T/C (compound 0.316 µM): 23.5% and 21.2% and 26.5%
- viability, T/C (compound 1 µM): 14% and 12.6% and 12.7%
- viability, T/C (compound 3.16 µM): 10.9% and 11.7% and 9.02%
- viability, T/C (compound 10 µM): 5.01% and 6.17% and 5.68%
- IC50 (curve of compound): 99.8 nM and 115 nM and 128 nM

Structure (SMILES): O=C(c1cc(Cc2n[nH]c(=O)c3ccccc23)ccc1F)N1CCN(C(=O)C2CC2)CC1 + Cc1[nH]c2ccc(F)cc2c1-c1nc2c3cccnc3c3ncccc3c2[nH]1
- IC50 (curve of first compound, second compound 0.0316 µM): 5340 nM
- IC50 (curve of first compound, second compound 0.1 µM): 3120 nM
- IC50 (curve of first compound, second compound 0.316 µM): 5530 nM
- IC50 (curve of first compound, second compound 1 µM): < 31.6 nM
- IC50 (curve of first compound, second compound 3.16 µM): < 31.6 nM
- IC50 (curve of first compound, second compound 10 µM): < 31.6 nM
- viability, T/C (second compound 0.0316 µM, first compound 0.0316 µM): 97.1%
- viability, T/C (second compound 0.0316 µM, first compound 0.1 µM): 82.3%
- viability, T/C (second compound 0.0316 µM, first compound 0.316 µM): 94.9%
- viability, T/C (second compound 0.0316 µM, first compound 1 µM): 66.5%
- viability, T/C (second compound 0.0316 µM, first compound 3.16 µM): 72.8%
- viability, T/C (second compound 0.0316 µM, first compound 10 µM): 31%
- viability, T/C (second compound 0.1 µM, first compound 0.0316 µM): 89.1%
- viability, T/C (second compound 0.1 µM, first compound 0.1 µM): 83.2%
- viability, T/C (second compound 0.1 µM, first compound 0.316 µM): 69.4%
- viability, T/C (second compound 0.1 µM, first compound 1 µM): 57.3%
- viability, T/C (second compound 0.1 µM, first compound 3.16 µM): 62.3%
- viability, T/C (second compound 0.1 µM, first compound 10 µM): 23.5%
- viability, T/C (second compound 0.316 µM, first compound 0.0316 µM): 72.9%
- viability, T/C (second compound 0.316 µM, first compound 0.1 µM): 82.4%
- viability, T/C (second compound 0.316 µM, first compound 0.316 µM): 74%
- viability, T/C (second compound 0.316 µM, first compound 1 µM): 82.3%
- viability, T/C (second compound 0.316 µM, first compound 3.16 µM): 69.8%
- viability, T/C (second compound 0.316 µM, first compound 10 µM): 28%
- viability, T/C (second compound 1 µM, first compound 0.0316 µM): 4.09%
- viability, T/C (second compound 1 µM, first compound 0.1 µM): 3.9%
- viability, T/C (second compound 1 µM, first compound 0.316 µM): 4.15%
- viability, T/C (second compound 1 µM, first compound 1 µM): 4.33%
- viability, T/C (second compound 1 µM, first compound 3.16 µM): 6.04%
- viability, T/C (second compound 1 µM, first compound 10 µM): 4.53%
- viability, T/C (second compound 3.16 µM, first compound 0.0316 µM): 3.99%
- viability, T/C (second compound 3.16 µM, first compound 0.1 µM): 3.97%
- viability, T/C (second compound 3.16 µM, first compound 0.316 µM): 3.46%
- viability, T/C (second compound 3.16 µM, first compound 1 µM): 3.87%
- viability, T/C (second compound 3.16 µM, first compound 3.16 µM): 4.83%
- viability, T/C (second compound 3.16 µM, first compound 10 µM): 3.88%
- viability, T/C (second compound 10 µM, first compound 0.0316 µM): 4.17%
- viability, T/C (second compound 10 µM, first compound 0.1 µM): 3.02%
- viability, T/C (second compound 10 µM, first compound 0.316 µM): 3.67%
- viability, T/C (second compound 10 µM, first compound 1 µM): 4.06%
- viability, T/C (second compound 10 µM, first compound 3.16 µM): 5.08%
- viability, T/C (second compound 10 µM, first compound 10 µM): 4.55%

Structure (SMILES): CC(C)(O)C1CCC(Nc2ccc3ncc(-c4cccc(C(F)(F)F)c4)n3n2)CC1 (configuration not stated)
- viability, T/C (compound 0.0316 µM): 109% and 102% and 93.8%
- viability, T/C (compound 0.1 µM): 101% and 72.6% and 98.9%
- viability, T/C (compound 0.316 µM): 104% and 94.5% and 96.9%
- viability, T/C (compound 1 µM): 78.5% and 77.2% and 75.5%
- viability, T/C (compound 3.16 µM): 27% and 35.3% and 27.6%
- viability, T/C (compound 10 µM): 31.4% and 36.7% and 24.7%
- IC50 (curve of compound): 1940 nM and 2140 nM and 1840 nM

Structure (SMILES): O=C(NO)c1cnc(N2CCN(S(=O)(=O)c3ccc4ccccc4c3)CC2)nc1
- viability, T/C (compound 0.0316 µM): 65% and 73.3% and 81.7%
- viability, T/C (compound 0.1 µM): 24% and 32.4% and 40.8%
- viability, T/C (compound 0.316 µM): 4.46% and 3.52% and 3.88%
- viability, T/C (compound 1 µM): 0.24% and 0.3% and 0.34%
- viability, T/C (compound 3.16 µM): 0.04% (2×) and 0.15%
- viability, T/C (compound 10 µM): 0.06% and 0.13% and 0.05%
- IC50 (curve of compound): 48.1 nM and 61 nM and 77.2 nM

Structure (SMILES): CCCS(=O)(=O)Nc1ccc(F)c(C(=O)c2c[nH]c3ncc(-c4ccc(Cl)cc4)cc23)c1F
- viability, T/C (compound 0.0316 µM): 105% (2×) and 108%
- viability, T/C (compound 0.1 µM): 96.1% and 96.3% and 95.1%
- viability, T/C (compound 0.316 µM): 106% and 108% and 97.5%
- viability, T/C (compound 1 µM): 103% and 80.5% and 96.6%
- viability, T/C (compound 3.16 µM): 66.4% and 67.2% and 56.1%
- viability, T/C (compound 10 µM): 21.1% and 13.8% and 16.5%
- IC50 (curve of compound): 4800 nM and 4380 nM and 3780 nM

Structure (SMILES): O=c1[nH]cc(F)c(=O)[nH]1
- viability, T/C (compound 0.0316 µM): 109% and 96.5% and 111%
- viability, T/C (compound 0.1 µM): 86.7% and 99.3% and 94.8%
- viability, T/C (compound 0.316 µM): 99.8% and 104% and 106%
- viability, T/C (compound 1 µM): 95.4% and 96.4% and 96.5%
- viability, T/C (compound 3.16 µM): 69.2% and 93.7% and 84.7%
- viability, T/C (compound 10 µM): 30.4% and 23.8% and 19.9%
- IC50 (curve of compound): 5600 nM and 6490 nM and 5820 nM
